From US7906477B2 (Genspera, Inc., priority 2002, dated 2011)
Blank lines part the entries; values can stand above or below the compound they belong to. Square brackets hold non-standard residues; d marks the D form. Ends that are not written are not given here. Peptide text beside a SMILES is read from it. * marks the point of attachment. X1 = C/C=C(/C)C(=O)O[C@H]1C(C)=C2[C@H]([C@@H]1OC(=O)CCCCCCC)[C@@](C)(OC(C)=O)C[C@H](OC(=O)CCCCCCCCCCCN*)[C@@]1(O)[C@H]2OC(=O)[C@@]1(C)O; Tyr(3-NO2) = N[C@@H](Cc1ccc(O)c([N+](=O)[O-])c1)C(=O)O; AMC = Cc1cc(=O)oc2cc(N*)ccc12; Abz = aminobenzoic acid; Dap = NC[C@H](N)C(=O)O

Columns and labels:
[1] = molecular target: T1, hK2 (Homo sapiens, UniProt P20151); assay: on-bead digestion of PEGA-bound fluorescence-quenched peptides by hK2; type: biochemical; conditions: 4 μg/ml hK2, PEGA resin
T1 construct: made in house
T1 sequence (P20151 25-261): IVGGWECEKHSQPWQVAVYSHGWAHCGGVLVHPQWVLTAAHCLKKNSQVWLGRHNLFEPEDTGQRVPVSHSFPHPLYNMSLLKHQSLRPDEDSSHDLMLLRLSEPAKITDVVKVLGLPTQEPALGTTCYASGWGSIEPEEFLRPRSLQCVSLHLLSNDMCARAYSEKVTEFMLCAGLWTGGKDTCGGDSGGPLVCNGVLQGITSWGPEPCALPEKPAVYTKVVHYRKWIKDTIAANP
Procedure: For screening, approximately 1 ml of resin (˜65,000 beads) was first suspended in methanol in a Petri dish and examined under transilluminant UV light (302 nm) to detect any falsely positive fluorescent beads prior to addition of protease. After removal of ˜40-50 beads, the resin was washed with water and finally suspended in 10 ml buffer in a glass Petri dish. After a final screen for false-positives, hK2 was added from a frozen stock solution to make 4 μg/ml final. Fluorescent beads were selected and removed with a micropipette, washed with 1 M NaCl, water, DMF, MeOH, water and stored in MeOH at −20° C.
Additionally, Walle and co-workers (Thorpe, D. S. and Walle, S. (2000) Biochem. Biophys. Res. Commun. 269:591-595) published data from a small combinatorial library to find linkers for the optimal display of peptide ligands to various protein targets. They reported that the insertion of a dipeptide consisting of a cationic residue together with a hydrophobic residue presents a general method for optimizing peptide display on solid phase beads. […] The test peptide Y′GKAFRL-Dap-F-K′-PEGA (SEQ ID NO:53) was synthesized and observed that the time required to generate clearly detectable fluorescence on the beads was reduced to 4-5 hours compared to 10-12 hours for the same peptide sequence lacking the Dap-F linker. […]

[2] = system: hK2; assay: hK2, fluorescence-quenched peptides tested in solution; conditions: human, up to prolonged incubation
[3] = pharmacokinetics after single intravenous dose, plasma levels by LC/MS/MS; type: in vivo, mouse; conditions: Balb-C mice, single intravenous dose 3.67 μmoles/kg
Procedure: FIG. 9 depicts pharamacokinetic analysis of GKAFRR-L12ADT (SEQ ID NO:44) following single intravenous injection of 3.67 μmole/kg. Mice were treated in groups of 3 and then sacrificed at indicated time points. Data represent average±standard error of plasma concentrations as determined by LC-MS analysis.
Calibration standards consisted of ac-GKAFRR-L12ADT prodrug, RL12ADT or L12ADT spiked into mouse plasma and plasma samples from treated mice were analyzed by liquid chromatography coupled to a quadrupolequadripole mass spectrometer (LC/MS/MS) [PESciex API 3000]. A multistep gradient elution HPLC method was used to separate the ac-GKAFRR-L12ADT prodrug from the free RL12ADT and L12ADT with eluent A=2 mM ammonium acetate with 0.1% formic acid 1% acetic acid in deionized water and eluent B=90% acetonitrile/1% acetic acid/[…]. Samples were eluted through a Zorbax SB-C18 Rapid Resolution column (2/1×30 mm, 3.5 μm) at a flow rate of 0.3 ml/min and gradient of 100% A to 100% B over 12 minutes. Calibration was done using extracted standards of ac-GKAFRR-L12ADT added to and then extracted from mouse plasma in a range of 0.001-10 μM, and linear regression analysis was used to generate best-fit lines, from which peak areas of samples were converted to concentration of prodrug. Peak areas of RL12ADT and L12ADT were below limit of detection at all time points and, therefore, calibration was not performed. Single-dose pharmacokinetics were assessed by noncompartmental analysis (Gibaldi, M. and Perroer, D. Pharmacokinetics, 2nd edition, p. 407-409. New York, 1982) The area under the curve from time zero to infinity (AUC0-∞) was calculated with the linear trapezoidal method (Gibaldi, M. and Perroer, D. Pharmacokinetics, 2nd edition, p. 407-409. New York, 1982)). The terminal half-life (T1/2) was determined from the terminal slope (ke) on a log-linear plot of concentration versus time.
To determine pharmacokinetic parameters for the hK2-activated thapsigargin prodrug, Balb-C mice (n=3/timepoint) were treated with a single intravenous dose of 3.67 μmoles/kg of the ac-GKAFRR-L12ADT (SEQ ID NO:41) prodrug. At various time points (5, 10, 30 minutes and 1, 1.5, 2, 3, 4, 6, 12, 24 hrs) mice were sacrificed after blood was obtained by cardiac puncture. After precipitating serum proteins with acetonitrile, supernatants were evaluated by LC-MS to determine concentrations of ac-GKAFRR-L12ADT (SEQ ID NO:41), R-L12ADT and L12ADT at each time points. Areas under the curve were converted to concentrations based on a standard curve that was linear for concentrations ranging from 1 nM to 10,000 nM. […] Both RL12ADT and L12ADT were below the lower limit of detection (i.e. <1 nM) for all time points, FIG. 6.

[4] = plasma stability in 50% human plasma; type: in vitro ADME; conditions: 50% fresh heparinized plasma, 24 hours, room temperature, HPLC and MALDI-TOF
Procedure: FIG. 5 depicts the stability of Ac-GKAFRR-L12ADT (SEQ ID NO:41) in human plasma after a 24 hour incubation, as determined by HPLC analysis. Ac-GKAFRR-L12ADT (SEQ ID NO:41) was incubated in 50% human plasma for 24 hours at room temperature. Peak 1 represents an unidentified plasma contaminant that was also present in control plasma. Peaks 2 and 3 both represent Ac-GKAFRR-L12ADT (SEQ ID NO:41) as confirmed by MALDI-TOF mass spectrometric analysis.
Mouse plasma was obtained from cardiac puncture of anesthetized mice prior to euthanization by CO2 overdose according to protocols approved by the Johns Hopkins Animal Care and Use Committee. Human plasma was obtained from discarded, pooled, and unlabeled clinical samples. Plasma was diluted to 50% in Tris buffer (50 mM Tris-HCl, 100 mM NaCl, pH 7.8). To this, test peptides/prodrugs were added to 250 or 500 μM final concentration. After the incubation period, one volume (200 μl) of acetonitrile was added to precipitate the protein fraction and the tube was centrifuged at 14,000 for 2 min. The supernatant was analyzed by C18-HPLC and the collected peaks were analyzed by MALDI-TOF as described above.
Arginine-containing peptides are potential substrates for the wide variety of other trypsin-like proteases that are present in the blood and may have residual activity in the blood. The plasma stability of an hK2 peptide substrate may therefore be limited and this would have significant consequences related to the development of an hK2 activated prodrug. Therefore, two fluorescence quenched hK2 peptide substrates peptides were incubated in 50% mouse or human plasma (diluted in PBS buffer) to determine stability using a plate-reader. As observed with arginine containing peptides from the SPOT analysis above, none of the arginine-containing, fluorescence quenched hK2peptide substrates were stable in human or mouse plasma. Fluorescence-quenched Y′GKAFRR-Dap-GK′ (SEQ ID NO:42) and Y′GKAFRRLGK′ (SEQ ID NO:21) (500 μM each) were hydrolyzed when incubated in 50% mouse or human plasma (FIG. 7). Mouse plasma degraded the peptides faster than human plasma (FIG. 7). […] In human plasma, more peptide remained after 3 hours (˜25%). […] The proteolytic activity from plasma was never affected by repeated freeze-thaw cycles or by storage of the mouse plasma alone at room temperature for several days.
To determine the plasma stability for the hK2 prodrug, the prodrug was incubated in 50% fresh heparinized (1%) plasma for 24 hours at room temperature, precipitated the proteins by adding one volume of 1% TFA in acetonitrile and analyzed the supernatant by HPLC. Unexpectedly, BPLC analysis after 24 hrs incubation in plasma yielded only a single peak corresponding to the hK2 prodrug (FIG. 5). MALDI-TOF MS of the isolated single peak confirmed the stability of the molecule.

[5] = system: Balb-C mice; assay: in vivo toxicity, single and repeated intravenous injection; design: species or system mouse
Procedure: To determine in vivo toxicity of ac-GKAFRR-L12ADT (SEQ ID NO:41), Balb-C mice (Harlan) received a single intravenous injection of an increasing dose of prodrug. Mice were monitored for toxicity hourly for twelve hours and then daily×one week. Separate groups of three mice each received increasing doses of ac-GKAFRRL12ADT (SEQ ID NO:41). […] All animals receiving doses less than LD100 were alive and well up to 1 week after receiving a single dose. All procedures were performed according to protocols approved by the Johns Hopkins Animal Care and Use Committee.
Balb-C mice were treated in groups of 3with a single intravenous injection of increasing doses of the ac-GKAFRR-L12ADT (SEQ ID NO:41) prodrug to establish the dose that killed 100% of mice (i.e. LD100). […] All mice, however, tolerated a single intravenous dose of 3.67 μmoles/kg and this dose was then used for further dosing and pharmacokinetic studies.

[6] = molecular target: T1, hK2; conditions: previously reported; cited from earlier work
[7] = system: hK2; assay: 8 μg/ml hK2 in PBS buffer; conditions: human
[8] = system: Cathepsin B; assay: Cathepsin B, 1 μg/ml
[9] = system: Cathepsin D; assay: Cathepsin D, 1 μg/ml
[10] = system: human prostate cancer cells; conditions: human prostate cancer cells in vitro; cited from earlier work
[11] = system: hK2; assay: hK2 (4 μg/ml) in 50 mM Tris, 0.1 M NaCl, pH 7.8; conditions: human, room temperature, up to 24 hours
[12] = 50% fresh heparinized (1%) plasma; 50% human plasma; conditions: room temperature, up to 24 hours
[13] = system: Urokinase; assay: Urokinase, 1 μg/ml
[14] = system: Plasmin; assay: Plasmin, 1 μg/ml
[15] = five consecutive daily intravenous injections of 3.67 μmoles/kg

incubation time to yield clearly detectable fluorescent beads [1]: 10 to 12 h
Compound: Y′GKAFRLK′-PEGA: test hK2 peptide substrate on PEGA resin ([Tyr(3-NO2)]GKAFRLK(Abz)-{PEGA resin})

Compound: Y′GSKGHFKL-Dap-K′
not cleaved [2]: not digested by hK2, even after prolonged incubation

Compound: C/C=C(/C)C(=O)O[C@H]1C(C)=C2[C@H]([C@@H]1OC(=O)CCCCCCC)[C@@](C)(OC(C)=O)C[C@H](OC(=O)CCCCCCCCCCCNC(=O)[C@H](CC(C)C)NC(=O)[C@H](CCCNC(=N)N)NC(=O)[C@H](CCCNC(=N)N)NC(=O)[C@H](Cc1ccccc1)NC(=O)[C@H](C)NC(=O)[C@H](CCCCN)NC(=O)CNC(C)=O)[C@@]1(O)[C@H]2OC(=O)[C@@]1(C)O [ac-GKAFRR-L12ADT] (Ac-GKAFRRL-X1)
stability in the serum in vivo (in words) [3]: highly stable to hydrolysis in the serum in vivo | half-life ([3]; mouse, plasma): 40.7 ± 1.2 min | AUC(0-inf) ([3]; mouse, plasma, read-out: area under the curve (converted)): 40.7 µM·h | Cmax ([3]; mouse, plasma): 36.8 ± 7.2 µM | plasma stability of the prodrug (in words) [4]: No degradation products could be identified | single intravenous dose tolerated by all mice ([5]; Balb-C mice, single intravenous dose): 3.67 µmol/kg | toxicity of repeated dosing (in words) [5, 15]: without any deaths or observable toxicity | weight loss over baseline [5, 15]: < 15%

incubation time to yield clearly detectable fluorescent beads [1]: 4 to 5 h
Compound: Y′GKAFRL-Dap-F-K′-PEGA: test peptide on PEGA resin with Dap-F linker ([Tyr(3-NO2)]GKAFRL[Dap]FK(Abz)-{PEGA resin})

Compound: Pro-Phe-Arg-{AMC}
Km [6]: 40 µM | kcat [6]: 0.92 s⁻¹

not cleaved [7]: did not show any hydrolysis
Compound: Y′GSKGHFKL-Dap-F-K′

Compound: Abz-GKAFRRLY′
not cleaved [8]: No appreciable hydrolysis; relative rate 1 (approximately 0.1% digestion in 1 hour) | not cleaved [9]: No appreciable hydrolysis; relative rate 1 (approximately 0.1% digestion in 1 hour)

Compound: CC=C(C)C(=O)OC1C(C)=C2C(C1OC(=O)CCCCCCC)C(C)(OC(C)=O)CC(OC(=O)CCCCCCCCCCCNC(=O)C(N)CC(C)C)C1(O)C2OC(=O)C1(C)O [L12ADT, 8-O-(12-[L-leucinoylamino]dodecanoyl)-8-O-debutanoylthapsigargin]
LD50 [10]: ~30 nM

cleaved bond [11]: Arg-Leu | cleaved bond [14]: arginine-arginine
Compound: Ac-GKAFRR-L12ADT
not cleaved [8]: No appreciable hydrolysis; relative rate 1 (approximately 0.1% digestion in 1 hour) | not cleaved [12]: only a single peak corresponding to the hK2 prodrug after 24 hrs; no degradation products | not cleaved [13]: no activity on the prodrug; relative rate 1 (approximately 0.1% digestion in 1 hour) | not cleaved [9]: No appreciable hydrolysis; relative rate 1 (approximately 0.1% digestion in 1 hour)

Compound: Y′GSKGPFKL-Dap-K′
not cleaved [2]: not digested by hK2, even after prolonged incubation
